Experimental data as given in patent US11173146B2, “Selective activators of the intermediate conductance CA2+activated K+ channel KCa3.1 and their methods of use” (The Regents of the University of California, priority 2014, dated 2021).

What was measured:
hKCa2.1 = hKCa2.1 (Homo sapiens, UniProt P0DP23+Q92952); assay: Whole-cell patch-clamp KCa2.1 activation (HEK-293)
Experimental: Electrophysiology. Experiments were conducted either manually with an EPC-10 amplifier (HEKA, Lambrecht/Pfalz, Germany) or on a QPatch-16 automated electrophysiology platform (Sophion Biosciences, Denmark). […] Patch pipettes were pulled from soda lime glass (micro-hematocrit tubes, Kimble Chase, Rochester, N.Y.) and had resistances of 2-3 MΩ. […] Free Ca^2+ concentrations were calculated with MaxChelator assuming a temperature of 25° C., a pH of 7.2 and an ionic strength of 160 mM. […] Na^+ aspartate Ringer was used as an external solution (in mM): 160 Na^+ aspartate, 4.5 KCl, 2 CaCl2, 1 MgCl2, 5 HEPES, pH 7.4, 290-310 mOsm. Both KCa2 and KCa3.1 currents were elicited by 200-ms voltage ramps from −120 mV to 40 mV applied every 10 sec and the fold-increase of slope conductance at −80 mV by drug taken as a measure of channel activation.
For automated electrophysiology experiments cells were grown to ˜70% confluency, rinsed in sterile PBS containing 0.02% EDTA, and lifted with 2 mL of TrypLE™ Express (Gibco, Grand Island, N.Y.) for ˜2 min. […] Current slopes (in ampere per sec) were measured using the SophionQPatch software and exported to Microsoft Excel and Origin 7.0 (OriginLab Corp. MA) for analysis.

hKV2.1 = biological target: T1, hKV2.1 (Homo sapiens, UniProt Q14721); assay: KV2.1 current inhibition (HEK293); type: cell-based
T1 construct: host or cells: HEK293
From the text: Cells, Cell lines and Clones. HEK-293 cells stably expressing hKCa2.1, rKCa2.2 and hKCa3.1 were obtained from Khaled Houamed (University of Chicago, Ill.) in 2002 and have been maintained in the Wulff laboratory at the University of California since then. The cloning of hKCa2.3 (19 CAG repeats) and hKCa3.1 has been previously described (Wulff et al., 2000). The hKCa2.3 clone was later stably expressed in COS-7 cells at Aurora Biosciences Corp., San Diego, Calif. […]
Electrophysiology. […] For manual experiments COS-7, HEK-293 or L929 cells were trypsinized, plated onto poly-L-lysine coated coverslips and typically recorded from between 20 min and 4 h after plating. […] Free Ca^2+ concentrations were calculated with MaxChelator assuming a temperature of 25° C., a pH of 7.2 and an ionic strength of 160 mM. To reduce contaminating currents from native chloride channels in COS-7 cells, KCa2.3 currents were recorded with an internal pipette solution containing (in mM): 145 K^+ aspartate, 2 MgCl2, 10 HEPES, 10 EGTA and 7.4 CaCl2 (500 nM free Ca^2+), pH 7.2, 290-310 mOsm. […] KV2.1, Kv1.3, and KV3.1 currents were recorded in normal Ringer solution with a Ca^2+-free KF-based pipette solution as previously described (Schmitz et al., 2005). HERG (KV11.1) currents were recorded with a 2-step pulse from −80 mV first to 20 mV for 1 sec and then to −50 mV for 1 sec. […]

T1 sequence (Q14721 whole entry): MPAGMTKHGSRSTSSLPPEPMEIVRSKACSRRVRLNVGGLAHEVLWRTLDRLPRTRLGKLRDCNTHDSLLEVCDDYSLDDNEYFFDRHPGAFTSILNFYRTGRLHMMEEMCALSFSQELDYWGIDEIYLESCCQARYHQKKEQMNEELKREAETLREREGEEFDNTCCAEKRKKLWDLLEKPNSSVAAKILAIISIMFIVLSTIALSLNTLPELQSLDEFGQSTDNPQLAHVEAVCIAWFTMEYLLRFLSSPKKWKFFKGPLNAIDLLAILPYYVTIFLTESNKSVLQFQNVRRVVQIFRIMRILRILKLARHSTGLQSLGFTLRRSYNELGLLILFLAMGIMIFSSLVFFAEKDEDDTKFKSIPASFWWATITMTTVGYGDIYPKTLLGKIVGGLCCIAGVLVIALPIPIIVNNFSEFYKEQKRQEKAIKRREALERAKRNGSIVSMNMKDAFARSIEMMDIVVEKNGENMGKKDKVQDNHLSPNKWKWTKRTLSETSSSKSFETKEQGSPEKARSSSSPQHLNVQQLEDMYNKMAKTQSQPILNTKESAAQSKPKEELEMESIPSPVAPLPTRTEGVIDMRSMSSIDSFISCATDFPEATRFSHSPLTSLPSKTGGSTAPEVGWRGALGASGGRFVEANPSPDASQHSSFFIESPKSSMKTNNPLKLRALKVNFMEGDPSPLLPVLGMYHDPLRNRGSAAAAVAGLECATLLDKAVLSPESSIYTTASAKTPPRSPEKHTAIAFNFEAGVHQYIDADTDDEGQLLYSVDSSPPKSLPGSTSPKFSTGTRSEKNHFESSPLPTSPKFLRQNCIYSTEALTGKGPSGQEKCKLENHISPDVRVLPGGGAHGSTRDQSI

| SMILES | EC50 (hKCa2.1) [µM] | Hill coefficient nH, KCa2.1 concentration-response curve (hKCa2.1; FIG. 4 legend) | inhibition at 50 µM (hKV2.1; at 50 μM) [%] | inhibition at 25 µM (hKV2.1; at 25 μM) [%] |
| --- | --- | --- | --- | --- |
| Cc1cc2nc(N)oc2c2ccccc12 [SKA-121, 5-Methylnaphtho[2,1-d]oxazol-2-amine] | 8.7 ± 1.6 | 4.1 | 43.2 ± 12.5 |  |
| Cc1cc2sc(N)nc2c2ccccc12 [SKA-111, 5-methylnaphtho[1,2-d]thiazol-2-amine] |  |  |  | 37.3 ± 9 |
